Test results: patent publication US20060154907A1, “Method of treating hormonal deficiencies in women undergoing estrogen replacement therapy” (Barr Laboratories, Inc., priority 2000, published 2006)
Where “and” joins values, the source holds several entries; their conditions need not be identical. Equal entries are not always repeated.

Experiments:
uterine horns in mice [1] = assay: Weight of uterine horns in ovariectomized mice: estrogen, oxandrolone or combination; conditions: second experiment (oxandrolone); for D Hs/BW (dry horns Rt + Lt / body weight) / Lt H D (left horn dry weight) / Rt H D (right horn dry weight): dried 90° C. 24 hrs; for W Hs/BW (wet horns Rt + Lt / body weight) / Lt H W (left horn wet weight) / Rt H W (right horn wet weight): daily injections 7 days
Source text: (§1) The protocol employed in the experiment included taking ovariectomized female mice ordered from Charles River Laboratories, of which the females were 32-52 days old, after ovariectomy, and separating them into four groups. The first group of mice received daily injections of testosterone for 7 days. A second group of mice received daily injections of estradiol for 7 days. A third group of mice received daily injections of testosterone plus estradiol for 7 days. Finally, the mice in the fourth group received daily injections of a control vehicle for 7 days. All of the injections were given 1M at 10 AM, alternatively to the right and left buttock. The daily amount injected of the estradiol and/or testosterone was 10 μg/Kg of each hormone, delivered at a dose of 0.25 ml.
(§2) The injections were produced based upon the following protocols. The estradiol selected was the oil-dissolved 17β-estradiol from Sigma (17β-estradiol E-8875. The estradiol was prepared by dissolving 200 μg of the hormone in 0.25 ml ethanol for a ×1000 stock (0.8 mg/1 ml=×1000 stock). Next, 10 μl aliquots were dispensed into nine 15 ml conical plastic tubes and frozen. For each injection, one of the tubes was thawed, 9.99 ml saline was added and then mixed to obtain 10 ml of the solution at a level of 0.8 μg/1 ml. Then, 0.25 ml were injected into each animal.
A second experiment was performed using the protocols set above. The only change included replacing testosterone with oxandrolone. The oxandrolone was prepared by dissolving a 20 mg powder of the original vial in 1.0 ml of DMSO. 100 μl aliquots were then dispensed into 10 new vials (each containing now 2 mg/vial, or 20 μg/μl) and all vials, except one, were frozen at −20° C. The 9 frozen vials are referred to herein as “Original Stocks”.
Next, one of the Original Stock vials containing 100 μl of 20 μg/μl Oxandrolone was diluted to a 1:5 ratio in DMSO by adding 400 μl DMSO. […] 50 μl aliquots were then dispensed into 10 vials (each containing now 0.4 μg/μl, or 20 μg/50 μl) of which nine were frozen. The frozen vials from this part of the experiment are herein referred to as “Diluted Stocks”.
One Diluted Stock vial was taken and diluted in 24.95 ml saline to get a solution of 20 μg/25 ml oxandrolone, or 0.2 μg/0.25 ml. The 0.5 ml aliquots are then dispensed into 20 vials and frozen. The remaining 15 ml were discarded. On the day of injection, each one of the vials was thawed 0.25 ml were injected into each animal based upon a 20 gm animal. The dose injected may be adjusted per actual weight of the animal (may vary from 19 gm to 24 gm, 0.238 ml to 0.3 ml).
After the last day of injections, the mice were weighed and then euthanized in a CO2 chamber. Blood was obtained from the heart in an amount of 2-5 ml. Time was allotted to let it clot and then it was centrifuged and the serum was collected and stored at −80° C. The abdomen was opened by a longitudinal ventral incision. Then the uterine horns were identified and the right horn was transected from the level of the vagina until the ovary (thus, without the ovary and without the parametrium). This process was repeated for the left horn. Both horns were weighed to determine the wet weight of the horns. Then the horns were placed on silver foil paper and baked in an oven at 90° C. for 24 hrs. Then the dry weight of the horns was taken.

uterine horns in mice [2] = assay: Weight of uterine horns in ovariectomized mice: estrogen, testosterone or combination; conditions: daily injections 7 days, 10 μg/Kg of each hormone; for D Hs/BW (dry horns Rt + Lt / body weight) / Lt H D (left horn dry weight) / Rt H D (right horn dry weight): dried 90° C. 24 hrs
Source text: Applicants performed a set of experiments to determine the effects of estrogen and testosterone on weight of uterine horns in mice.
as §1, §2
The testosterone selected was testosterone enanthane from Bristol Myers Squib (Delatestryl™). The testosterone was prepared by aspirating […] from a bottle containing 200 mg/1 ml testosterone via a tuberculin syringe of 1.0 ml. Next, 24.9 ml of ethanol was poured into a 50 ml conical plastic tube. Then 0.1 ml of the testosterone was dissolved in the syringe with the 24.9 ml of ethanol. This produced a ×1000 stock of 0.8 mg/1 ml. Similar to the estradiol protocol, next, 10 μl aliquots were dispensed into nine 15 ml conical plastic tubes and frozen. For each injection, one of the tubes was thawed, 9.99 ml saline is added and then mixed to obtain 10 ml of the solution at a level of 0.8 μg/1 ml. Then, 0.25 ml were injected into each animal. The injections were based for a 20 gm animal. The dose injected per actual weight of the animal may be adjusted by varying the weight, i.e., may vary from 19 gm to 24 gm (0.238 ml to 0.3 ml).
After the seven days of injections, the mice were euthanized via injection from Lumina. The mice were then weighed. After midline laparotomy, 2 ml to 5 ml does of blood was obtained from the heart. The blood was allowed to clot and was then centrifuged and the resulting serum was collected and stored at −80° C. The uterine horns were then identified, transected from the level of the vagina till the ovary (without the ovary and without the parametrium), weighted (i.e., wet weight of Rt and Lt horn), and placed separately in a piece of silver foil paper, and baked in an oven at 90° C. for 24 hrs to obtain the dry weight of the horns.

[3] = individual animal, ovariectomized female mice

SMILES | D Hs/BW (dry horns Rt + Lt / body weight) (uterine horns in mice [1]; group mean) [mg/gm] | W Hs/BW (wet horns Rt + Lt / body weight) (uterine horns in mice [1]; group mean) [mg/gm] | D Hs/BW (dry horns Rt + Lt / body weight) (uterine horns in mice [1]; individual animal) | Lt H D (left horn dry weight) (uterine horns in mice [1]; individual animal) | Rt H D (right horn dry weight) (uterine horns in mice [1]; individual animal) | Lt H W (left horn wet weight) (uterine horns in mice [1]; individual animal) | Rt H W (right horn wet weight) (uterine horns in mice [1]; individual animal) | W Hs/BW (wet horns Rt + Lt / body weight) (uterine horns in mice [1]; individual animal) | Lt H W (left horn wet weight) (uterine horns in mice [2]; group mean) [mg] | Rt H W (right horn wet weight) (uterine horns in mice [2]; group mean) [mg] | W Hs/BW (wet horns Rt + Lt / body weight) (uterine horns in mice [2]; group mean) [mg/gm] | D Hs/BW (dry horns Rt + Lt / body weight) (uterine horns in mice [2]; group mean) [mg/gm] | Lt H D (left horn dry weight) (uterine horns in mice [2]; group mean) [mg] | Rt H D (right horn dry weight) (uterine horns in mice [2]; group mean) [mg] | D Hs/BW (dry horns Rt + Lt / body weight) (uterine horns in mice [2]; individual animal) | Lt H D (left horn dry weight) (uterine horns in mice [2]; individual animal) | Rt H D (right horn dry weight) (uterine horns in mice [2]; individual animal) | Lt H W (left horn wet weight) (uterine horns in mice [2]; [3]) | Rt H W (right horn wet weight) (uterine horns in mice [2]; [3]) | W Hs/BW (wet horns Rt + Lt / body weight) (uterine horns in mice [2]; [3])
C[C@]12CC[C@@H]3c4ccc(O)cc4CC[C@H]3[C@@H]1CC[C@@H]2O [E, 17β-estradiol] | 0.66 | 3.63 | 0.97 mg/gm and 0.60 mg/gm and 0.61 mg/gm and 0.49 mg/gm and 0.63 mg/gm | 12 mg and 4.8 mg and 7.7 mg and 4.6 mg and 5 mg | 9.9 mg and 7.3 mg and 4.7 mg and 6.5 mg and 8.0 mg | 44.9 mg and 29.7 mg and 48.1 mg and 34.4 mg and 32.7 mg | 46.7 mg and 41.2 mg and 30 mg and 35 mg and 44.2 mg | 4.06 mg/gm and 3.52 mg/gm and 3.82 mg/gm and 3.05 mg/gm and 3.70 mg/gm | 20.0 | 19.5 | 1.82 | 0.27 | 2.9 | 3.0 | 0.28 mg/gm and 0.21 mg/gm and 0.38 mg/gm and 0.24 mg/gm and 0.22 mg/gm | 2.9 mg and 2.2 mg and 4.2 mg and 2.6 mg and 2.4 mg | 3.3 mg and 2.5 mg and 4.0 mg and 2.4 mg and 2.6 mg | 21.5 mg and 18.0 mg and 24.2 mg and 19.5 mg and 16.7 mg | 20.6 mg and 16.2 mg and 26.6 mg and 17.3 mg and 16.9 mg | 1.92 mg/gm and 1.55 mg/gm and 2.37 mg/gm and 1.79 mg/gm and 1.47 mg/gm
C[C@]12COC(=O)C[C@@H]1CC[C@@H]1[C@@H]2CC[C@@]2(C)[C@H]1CC[C@]2(C)O [Ox, oxandrolone] | 0.35 | 1.54 | 0.26 mg/gm and 0.20 mg/gm and 0.76 mg/gm and 0.16 mg/gm and 0.37 mg/gm | 2.3 mg and 2.2 mg and 5.5 mg and 1.4 mg and 4.3 mg | 3.4 mg and 2.0 mg and 12.5 mg and 2.2 mg and 4.2 mg | 14.4 mg and 13.8 mg and 22.9 mg and 11.3 mg and 19.4 mg | 16.5 mg and 12.0 mg and 35.7 mg and 13.2 mg and 14.6 mg | 1.40 mg/gm and 1.22 mg/gm and 2.47 mg/gm and 1.11 mg/gm and 1.50 mg/gm | – | – | – | – | – | – | – | – | – | – | – | –
CCCCCCC(=O)O[C@H]1CC[C@H]2[C@@H]3CCC4=CC(=O)CC[C@]4(C)[C@H]3CC[C@]12C [T, testosterone enanthane] | – | – | – | – | – | – | – | – | 12.6 | 14.0 | 1.21 | 0.27 | 3.2 | 2.8 | 0.57 mg/gm and 0.25 mg/gm and 0.16 mg/gm and 0.09 mg/gm and 0.31 mg/gm | 8.2 mg and 4.3 mg and 0.8 mg and 0.9 mg and 1.9 mg | 4.3 mg and 1.1 mg (2×) and 2.5 mg and 4.8 mg | 21.3 mg and 15.6 mg and 3.7 mg and 8.4 mg and 13.9 mg | 16.2 mg and 11.7 mg and 13.5 mg and 8.4 mg and 20.1 mg | 1.72 mg/gm and 1.26 mg/gm and 0.81 mg/gm and 0.72 mg/gm and 1.55 mg/gm
